In one experiment the test system is MYC expression. The experiment is described as follows: Western blotting of MYC in BRAF V600E cancer cell lines. The class given is cell-based, human. As to conditions: four cancer cell lines harboring BRAF V600E; 0.5 uM PLX4032, 24 hours. On the procedure:
FIG. 3A-3C. MYC regulated TERT expression in a TERT promoter mutation-independent manner. (FIG. 3A) The four indicated cancer cell lines harboring BRAF V600E mutation were treated with 0.5 uM PLX4032 and/or 10 nM MYC-specific siRNA (siMYC) for 24 hours, which were then subjected to Western blotting (upper panel) and qRT-PCR (lower panel). The relative TERT mRNA expression was normalized to the control group. (FIG. 3B, 3C) Parental and BRAF V600E knock-in SW48 cells were treated with control siRNA (siControl) or MYC-specific siRNA (siMYC, 10 nM) for 48 h, followed by Western blotting (FIG. 3B) and luciferase reporter assays (FIG. 3C). *P<0.05, **P<0.01, ***P<0.001, by 2-tailed Student's t test. n.s., not significant. All the values represent the average standard deviation (SD) of triplicate samples from a typical experiment. Similar results were obtained in two additional independent experiments.
Cells were lysed in the RIPA buffer (#sc-24948; Santa Cruz Biotechnology, Santa Cruz, CA) with protease inhibitor cocktail (#P8340; Sigma-Aldrich) and phosphatase inhibitor cocktail (#P0044; Sigma-Aldrich) and Western blotting analysis was performed as we previously described^54. […] Signals were detected by SuperSignal™ West Pico PLUS Chemiluminescent Substrate (#34579; Thermo Fisher Scientific). […]

Another experiment has as its system TERT promoter. The experiment is described as follows: TERT promoter luciferase reporter assay in K1 cells. The class given is cell-based, human. Conditions: K1 cells harboring BRAF V600E; PLX4032 0.5 uM. How it is done: FIG. 2A-2G. BRAF V600E/MAPK pathway regulated TERT expression. (FIG. 2A) TERT expression was analyzed by qRT-PCR in cells treated with 0.5 uM PLX4032 or 0.2 uM AZD6244 for 24 hours (upper panel). The corresponding levels of phosphorylated ERK (p-ERK), total ERK (t-ERK), and beta-actin were detected by Western blotting (lower panel). The relative TERT mRNA expression levels were normalized to the DMSO control group. (FIG. 2B) Luciferase reporting assay of TERT promoter activities in K1 cells treated with DMSO or PLX4032 (0.5 uM). (FIG. 2C, 2D) Specific shRNA against BRAF were used to knock down BRAF in thyroid cancer cell lines BCPAP and K1 and melanoma cell line A375. Scramble shRNA was used as control. Cells were then subjected to Western blotting (FIG. 2C) and qRT-PCR (FIG. 2D). […]
For promoter activity assay, cells were seeded in triplicate into a 24-well plate and then transfected with 300 ng pGL3 plasmids containing the TERT, GAPBA, or GABPB promoter, together with 12 ng Renilla luciferase (pRL-TK) plasmid (normalizing control) using Lipofectamine 3000 (Invitrogen). At 24 hours after the transfection, cells were lysed and luciferase activities were measured using the Dual-Luciferase Reporter Assay System (Promega). Results were presented as relative luciferase activities, which were obtained by dividing firefly luciferase values with Renilla luciferase values for each set of reading.

This is an account of results in patent US11911356B2, “Regulation of mutant TERT by BRAF V600E/map kinase pathway through FOS/GABP in human cancer” (THE JOHNS HOPKINS UNIVERSITY, priority 2017, dated 2024).

Consider `CCCS(=O)(=O)Nc1ccc(F)c(C(=O)c2c[nH]c3ncc(-c4ccc(Cl)cc4)cc23)c1F` [PLX4032], for which, in the experiment on MYC expression, the MYC expression result is “suppressed MYC expression”. In addition, in the experiment with TERT promoter, the “activities of the mutated TERT promoter (C228T or C250T)” value was “dramatically reduced” and the “activity of the wild-type TERT promoter” value is “limited effect”.
